# Laboratory results as given in patent US20090069320A1, “Substituted 4-Amino-Quinazoline Compounds with Metabotropic Glutamate Receptor Regulating Activity and Uses Thereof” (Gruenenthal GmbH, priority 2006, published 2009).
# Where a name gives a salt, the structure may show the parent alone.
# Biological target: T1, mGluR5 receptor (Sus scrofa, UniProt I3LUI7)
# T1 construct: 450 μg of protein from brain homogenate with 5 nM ^3[H]-MPEP; from tissue; host or cells: pig brain halves without medulla, cerebellum and pons
# Assay: [3H]-MPEP mGluR5 receptor binding assay (pig brain homogenate)
# Settings: 5 nM [3H]-MPEP, read-out: IC50 mGluR5 Receptor (pig) [^3H]-MPEP Bond
# In short: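 Compounds at 10 μM competed with 5 nM [3H]-MPEP for binding to pig brain membranes (450 μg protein) for 60 min at room temperature in pH 8.0 Hepes buffer. Bound radioactivity was collected on glass-fibre filters and read by β-counting, with 10 μM unlabelled MPEP giving non-specific binding.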
# T1 sequence (I3LUI7 19-1212): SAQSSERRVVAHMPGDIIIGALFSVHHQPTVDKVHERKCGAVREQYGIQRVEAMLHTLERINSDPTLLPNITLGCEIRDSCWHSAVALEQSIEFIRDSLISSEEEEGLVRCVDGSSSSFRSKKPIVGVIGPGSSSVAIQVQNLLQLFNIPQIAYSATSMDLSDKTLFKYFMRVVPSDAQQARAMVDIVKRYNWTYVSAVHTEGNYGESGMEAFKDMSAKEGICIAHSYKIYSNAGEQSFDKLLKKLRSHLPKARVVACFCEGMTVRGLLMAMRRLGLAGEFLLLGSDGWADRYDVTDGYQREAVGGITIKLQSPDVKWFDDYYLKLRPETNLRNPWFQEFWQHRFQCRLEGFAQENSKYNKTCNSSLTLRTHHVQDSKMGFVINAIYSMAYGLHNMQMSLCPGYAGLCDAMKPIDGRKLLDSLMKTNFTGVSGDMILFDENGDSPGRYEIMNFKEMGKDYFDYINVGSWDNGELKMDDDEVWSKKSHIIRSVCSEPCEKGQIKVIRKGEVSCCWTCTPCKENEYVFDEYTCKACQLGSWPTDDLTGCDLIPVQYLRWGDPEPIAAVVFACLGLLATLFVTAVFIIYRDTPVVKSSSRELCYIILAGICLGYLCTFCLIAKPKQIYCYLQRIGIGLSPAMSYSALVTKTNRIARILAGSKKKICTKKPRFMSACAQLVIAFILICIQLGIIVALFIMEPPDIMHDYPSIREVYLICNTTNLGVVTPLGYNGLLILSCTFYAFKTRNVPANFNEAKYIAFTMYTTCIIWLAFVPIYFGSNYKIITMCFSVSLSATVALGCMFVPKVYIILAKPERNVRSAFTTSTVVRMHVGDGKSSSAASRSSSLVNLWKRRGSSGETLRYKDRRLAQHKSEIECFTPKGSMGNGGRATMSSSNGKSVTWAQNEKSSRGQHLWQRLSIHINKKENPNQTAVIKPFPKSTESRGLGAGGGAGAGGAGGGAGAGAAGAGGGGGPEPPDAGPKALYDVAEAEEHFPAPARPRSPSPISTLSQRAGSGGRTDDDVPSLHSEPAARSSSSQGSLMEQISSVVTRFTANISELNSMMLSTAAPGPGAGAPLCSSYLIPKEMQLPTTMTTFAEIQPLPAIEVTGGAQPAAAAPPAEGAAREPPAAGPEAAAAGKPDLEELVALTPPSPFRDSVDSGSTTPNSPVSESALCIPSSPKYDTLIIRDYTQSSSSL
row,Structure (SMILES),IC50 [µM]
1,"CS(=O)(=O)N(Cc1cccc(-c2ccc3ncnc(NC4CC4)c3c2)c1)C1CCCC1 [Example 210, N-cyclopentyl-N-(3-(4-(cyclopropylamino)quinazolin-6-yl)benzyl)methane sulfonamide]",6.07
2,"O=C1COCC(=O)N1Cc1cccc(-c2ccc3ncnc(NC4CC4)c3c2)c1 [Example 212, 4-(3-(4-(cyclopropylamino)quinazolin-6-yl)benzyl)morpholine-3,5-dione]",0.1
3,"CC(=O)N(CCc1ccccc1)Cc1cccc(-c2ccc3ncnc(NC4CC4)c3c2)c1 [Example 214, N-[3-(4-cyclopropylamino-quinazolin-6-yl)-benzyl]-N-phenethyl-acetamide]",6.92
4,"CS(=O)(=O)N(Cc1cccc(-c2ccc3ncnc(NC4CC4)c3c2)c1)Cc1ccco1 [Example 215, N-(3-(4-(cyclopropylamino)quinazolin-6-yl)benzyl)-N-(furan-2-yl-methyl)methane sulfonamide]",3.61
5,"CC(=O)N(Cc1cccc(-c2ccc3ncnc(NC4CC4)c3c2)c1)Cc1ccco1 [Example 216, N-[3-(4-cyclopropylamino-quinazolin-6-yl)-benzyl]-N-furan-2-yl-methyl-acetamide]",1.5
6,"O=C1CCCN1Cc1cccc(-c2ccc3ncnc(NC4CC4)c3c2)c1 [Example 217, 1-[3-(4-cyclopropylamino-quinazolin-6-yl)-benzyl]-pyrrolidine-2-one; hydrochloride]",0.51
7,"CCCCN(Cc1cccc(-c2ccc3ncnc(NC4CC4)c3c2)c1)C(C)=O [Example 218, N-butyl-N-[3-(4-cyclopropylamino-quinazolin-6-yl)-benzyl]-acetamide; hydrochloride]",2.99
8,"O=C1CCC(c2ccccc2)C(=O)N1Cc1cccc(-c2ccc3ncnc(NC4CC4)c3c2)c1 (stereo not shown) [Example 220, 1-[3-(4-cyclopropylamino-quinazolin-6-yl)-benzyl]-3-phenyl-piperidine-2,6-dione; hydrochloride]",4.25
9,"CC(=O)N(C)Cc1cccc(-c2ccc3ncnc(NC4CC4)c3c2)c1 [Example 221, N-[3-(4-cyclopropylamino-quinazolin-6-yl)-benzyl]-N-methyl-acetamide]",5.36
10,"CS(=O)(=O)N(Cc1ccccc1)Cc1cccc(-c2ccc3ncnc(NC4CC4)c3c2)c1 [Example 222, N-benzyl-N-(3-(4-(cyclopropylamino)quinazolin-6-yl)benzyl)methane sulfonamide]",4.61
11,"O=S(=O)(CC(F)(F)F)N(Cc1cccc(-c2ccc3ncnc(NC4CC4)c3c2)c1)C1CC1 [Example 225, N-cyclopropyl-N-(3-(4-(cyclopropylamino)quinazolin-6-yl)benzyl)-2,2,2-trifluoroethane sulfonamide]",1.48
12,"O=S(=O)(c1ccc(C(F)(F)F)cc1)N(Cc1cccc(-c2ccc3ncnc(NC4CC4)c3c2)c1)C1CC1 [Example 226, N-cyclopropyl-N-(3-(4-(cyclopropylamino)quinazolin-6-yl)benzyl)-4-(trifluoromethyl)benzole sulfonamide]",2.64
13,"O=S(=O)(c1ccccc1)N(Cc1cccc(-c2ccc3ncnc(NC4CC4)c3c2)c1)C1CC1 [Example 227, N-cyclopropyl-N-(3-(4-(cyclopropylamino)quinazolin-6-yl)benzyl)benzole sulfonamide]",2.57
14,"O=C1C2CCCCC2C(=O)N1Cc1cccc(-c2ccc3ncnc(NC4CC4)c3c2)c1 (stereo not shown) [Example 228, 2-[3-(4-cyclopropylamino-quinazolin-6-yl)-benzyl]-hexahydro-isoindole-1,3-dione; hydrochloride]",8.7
15,"O=C1CC(c2ccccc2)C(=O)N1Cc1cccc(-c2ccc3ncnc(NC4CC4)c3c2)c1 (stereo not shown) [Example 229, 1-[3-(4-cyclopropylamino-quinazolin-6-yl)-benzyl]-3-phenyl-pyrrolidine-2,5-dione; hydrochloride]",3.5
16,"CC(c1cccc(-c2ccc3ncnc(NC4CC4)c3c2)c1)N(C1CC1)S(C)(=O)=O (stereo not shown) [Example 231, N-cyclopropyl-N-(1-(3-(4-(cyclopropylamino)quinazolin-6-yl)phenyl)ethyl)methane sulfonamide]",5.72
17,"CC(=O)N(Cc1ccc(-c2ccc3ncnc(NC4CC4)c3c2)o1)C1CC1 [Example 232, N-cyclopropyl-N-[5-(4-cyclopropylamino-quinazolin-6-yl)-furan-2-yl-methyl]-acetamide]",4.27
18,"CC(c1cccc(-c2ccc3ncnc(NC4CC4)c3c2)c1)N(C(=O)c1ccccc1)C1CC1 (stereo not shown) [Example 233, N-cyclopropyl-N-{1-[3-(4-cyclopropylamino-quinazolin-6-yl)-phenyl]-ethyl}-benzamide]",0.82
19,"CC(=O)N(C1CC1)C(C)c1cccc(-c2ccc3ncnc(NC4CC4)c3c2)c1 (stereo not shown) [Example 235, N-cyclopropyl-N-{1-[3-(4-cyclopropylamino-quinazolin-6-yl)-phenyl]-ethyl}-acetamide]",7.35
20,"COC(=O)CC(=O)N(Cc1cccc(-c2ccc3ncnc(NC4CC4)c3c2)c1)C1CC1 [Example 237, N-cyclopropyl-N-[3-(4-cyclopropylamino-quinazolin-6-yl)-benzyl]-methyl malonate]",0.57
21,"COC(=O)C(=O)N(Cc1cccc(-c2ccc3ncnc(NC4CC4)c3c2)c1)C1CC1 [Example 238, N-cyclopropyl-N-[3-(4-cyclopropylamino-quinazolin-6-yl)-benzyl]-methyl oxalate]",0.5
22,"CC(=O)N(Cc1cc(C)cc(-c2ccc3ncnc(NC4CC4)c3c2)c1)C1CC1 [Example 239, N-cyclopropyl-N-[3-(4-cyclopropylamino-quinazolin-6-yl)-5-methyl-benzyl]-acetamide]",4.12

# Same assay, conditions: 10 μM compound, 5 nM [3H]-MPEP
row,Structure (SMILES),% Inhibition of mGluR5 Receptor (pig) [^3H]-MPEP Bond at 10 μM [%]
1,"CN(Cc1cccc(-c2ccc3ncnc(NC4CC4)c3c2)c1)S(C)(=O)=O [Example 223, N-(3-(4-(cyclopropylamino)quinazolin-6-yl)benzyl)-N-methyl methane sulfonamide]",51

# Same assay, conditions: 10 μM compound, 5 nM [3H]-MPEP, read-out: % Inhibition of mGluR5 Receptor (pig) [^3H]-MPEP Bond at 10 μM
row,Structure (SMILES),inhibition at 10 µM [%]
1,"COCCN(Cc1cccc(-c2ccc3ncnc(NC4CC4)c3c2)c1)C(C)=O [Example 213, N-(3-(4-(cyclopropylamino)quinazolin-6-yl)benzyl)-N-(2-methoxyethyl)acetamide]",32
2,"CC(=O)N(Cc1ccccc1)Cc1cccc(-c2ccc3ncnc(NC4CC4)c3c2)c1 [Example 219, N-benzyl-N-[3-(4-cyclopropylamino-quinazolin-6-yl)-benzyl]-acetamide; hydrochloride]",45
3,"CS(=O)(=O)N(Cc1cncc(-c2ccc3ncnc(NC4CC4)c3c2)c1)C1CC1 [Example 234, N-cyclopropyl-N-[5-(4-cyclopropylamino-quinazolin-6-yl)-pyridin-3-yl-methyl]-methane sulfonamide]",41
4,"CC(=O)N(Cc1cncc(-c2ccc3ncnc(NC4CC4)c3c2)c1)C1CC1 [Example 240, N-cyclopropyl-N-[5-(4-cyclopropylamino-quinazolin-6-yl)-pyridin-3-yl-methyl]-acetamide]",47
5,"O=C1c2ccccc2C(=O)N1Cc1cccc(-c2ccc3ncnc(NC4CC4)c3c2)c1 [Example 241, 2-[3-(4-cyclopropylamino-quinazolin-6-yl)-benzyl]-isoindole-1,3-dione; hydrochloride]",33
